Test results published in patent publication US6352966B1, “Cleansing bars” (Albemarle Corporation, priority 2000, dated 2002).

Assay: Surface tension in ionic buffer solution
Format: physicochemical
Conditions: 0.02 normal aqueous potassium nitrate solution at 25° C.
Description: Also shown in Table 1 are the corresponding values for the partially neutralized monosodium salts of the corresponding alk(en)yl succinic acids.

Row | surface tension | Compound
1 | 26 millinewtons per meter | CCCCCCCCCCC(CC(=O)[O-])C(=O)[O-].[Na+].[Na+] (stereo not drawn) [Disodium n-decylsuccinate]
2 | 26 millinewtons per meter | CCCCCCCCC(CC(=O)[O-])C(=O)[O-].[Na+].[Na+] (stereo not drawn) [Disodium n-octylsuccinate]
3 | 26.32 millinewtons per meter | CCCCCCCCCCC(CC(=O)O)C(=O)[O-].[Na+] (stereo not drawn) [Monosodium n-decylsuccinate, reference compound]
4 | 26.64 millinewtons per meter | CCCCCCCCC(CC(=O)O)C(=O)[O-].[Na+] (stereo not drawn) [Monosodium n-octylsuccinate, reference compound]
5 | 26 millinewtons per meter | Disodium n-tetradecenylsuccinate
6 | 26 millinewtons per meter | Monosodium n-tetradecenylsuccinate [reference compound]

Row | Compound | surface tension
7 | Disodium n-dodecenylsuccinate | 25.8 millinewtons per meter
8 | Monosodium n-dodecenylsuccinate [reference compound] | 26.32 millinewtons per meter

Assay: Reflectance of cleansing bars
Format: physicochemical
Conditions: bar; the higher the reflectance the whiter the bar
Method: (§1) The desirable properties of cleansing bars formed from fully neutralized sodium salts of various alkenyl succinic acids of this invention were determined in a further series of comparative tests. In these tests both the reflectance and the bar hardness were determined. In addition to testing bars of five different fully neutralized succinate salts of this invention, the same properties were measured on four fully compounded commercial soap bars from different well-known soap manufacturers. As can be appreciated, the higher the reflectance the whiter the bar, and the higher the hardness, the more desirable is the bar. In Table 2, the five fully neutralized alkenyl succinic acids are identified in terms of the number of carbon atoms in the alkenyl group. Thus, for example, C6 SAS represents the fully neutralized disodium salt of n-hexenyl succinic acid. As regards reflectance, Commercial Bar B is pink in color, and Commercial Bar C is a coral-orange in color. The other two commercial bars are white.

Row | Compound | Reflectance
9 | Disodium n-dodecenylsuccinate | 87
10 | Disodium n-tetradecenylsuccinate | 74

Assay: Bar hardness of cleansing bars
Format: physicochemical
Conditions: the higher the hardness, the more desirable
Method: as §1

Row | Compound | Bar Hardness
11 | Disodium n-dodecenylsuccinate | 132
12 | Disodium n-tetradecenylsuccinate | 144
